# In ChEMBL document CHEMBL3392976, “The discovery of novel 3-(pyrazin-2-yl)-1H-indazoles as potent pan-Pim kinase inhibitors” (Bioorg Med Chem Lett, 2015):
# How the values were obtained:
# in vivo [1] = conditions: Sprague-Dawley, rat, iv, 2 mg/kg
# in vivo [2] = conditions: Sprague-Dawley, rat, iv, 2 mg/kg; remark: listed apart in the source
# in vivo [3] = conditions: Sprague-Dawley, rat, po, 5 mg/kg
# in vivo [4] = conditions: Sprague-Dawley, rat, iv, 2 mg/kg; remark: listed apart in the source
# in vivo [5] = conditions: Sprague-Dawley, rat, plasma, po, 5 mg/kg
smiles,measurement,setting,value
Fc1cccc(F)c1-c1ccc2[nH]nc(-c3cncc(O[C@H]4CNCCC45CC5)n3)c2c1,Vd,in vivo [1],3.7 L/kg
same,half-life,in vivo [2],2.7 h
same,bioavailability,in vivo [3],89%
same,clearance,in vivo [4],16.7 mL/min/kg
same,AUC,in vivo [5],12.2 µM·h
